Target: T1, Nav1.7 (or SCN9A) channel (Homo sapiens, UniProt Q15858)
T1 construct: expressed in transfected cells
Assay: Nav1.7 Ionworks Quattro automated electrophysiology in HEK cells expressing hSCN9A
Type: cell-based
Conditions: estimated IC50, values marked (IW), Ionworks Quattro assay, read-out: Nav1.7 EIC50 (IW)
Method: The ability of the compounds of formula (I) to block the Nav1.7 (or SCN9A) channel were measured using the assay described below. Human Embryonic Kidney (HEK) cells were transfected with an hSCN9A construct using lipofectamine reagent (Invitrogen), using standard techniques. Cells stably expressing the hSCN9A constructs were identified by their resistance to G-418 (400 μg/ml). Clones were screened for expression using the whole-cell voltage-clamp technique. HEK cells stably transfected with hSCN9A were maintained in DMEM medium supplemented with 10% heat-inactivated fetal bovine serum and 400 μg/ml G-418 in an incubator at 37° C. with a humidified atmosphere of 10% CO2. For HTS, cells were harvested from flasks by trypsinization and replated in an appropriate multi-well plate (typically 96 or 384 wells/plate) such that confluence would be achieved within 24 hours of plating. For electrophysiological studies, cells were removed from the culture flask by brief trypsinization and re-plated at low density onto glass cover slips. Cells were typically used for electrophysiological experiments within 24 to 72 hours after plating. Electrophysiological assays were also conducted using the Ionworks Quattro automated electrophysiological platform (Molecular Devices Corp). Intracellular and extracellular solutions were as described above with the following changes, 120 μg/ml amphotericin was added to the intracellular solution to perforate the membrane and allow electrical access to the cells. hSCN9A cells were grown and harvested as for PatchXpress and cells were resuspended in extracellular solution at a concentration of 1×10^6 cells/ml. The onboard liquid handling facility of the Ionworks Quattro was used for dispensing cells and application of test compounds. A voltage protocol was then applied that comprised of a voltage step to fully inactivate the sodium channels, followed by a brief hyperpolarized recovery period to allow partial recovery from inactivation for unblocked sodium channels, followed by a test depolarized voltage step to assess magnitude of inhibition by test compound. Compound effect was determined based on current amplitude difference between the pre-compound addition and post-compound addition scans. Compounds of the Examples were tested in the assays described above and found to have the Nav1.7 EIC50 (uM) values specified in the table below. All data are derived from the PatchXpress assay unless expressly stated otherwise.

T1 sequence (Q15858 whole entry): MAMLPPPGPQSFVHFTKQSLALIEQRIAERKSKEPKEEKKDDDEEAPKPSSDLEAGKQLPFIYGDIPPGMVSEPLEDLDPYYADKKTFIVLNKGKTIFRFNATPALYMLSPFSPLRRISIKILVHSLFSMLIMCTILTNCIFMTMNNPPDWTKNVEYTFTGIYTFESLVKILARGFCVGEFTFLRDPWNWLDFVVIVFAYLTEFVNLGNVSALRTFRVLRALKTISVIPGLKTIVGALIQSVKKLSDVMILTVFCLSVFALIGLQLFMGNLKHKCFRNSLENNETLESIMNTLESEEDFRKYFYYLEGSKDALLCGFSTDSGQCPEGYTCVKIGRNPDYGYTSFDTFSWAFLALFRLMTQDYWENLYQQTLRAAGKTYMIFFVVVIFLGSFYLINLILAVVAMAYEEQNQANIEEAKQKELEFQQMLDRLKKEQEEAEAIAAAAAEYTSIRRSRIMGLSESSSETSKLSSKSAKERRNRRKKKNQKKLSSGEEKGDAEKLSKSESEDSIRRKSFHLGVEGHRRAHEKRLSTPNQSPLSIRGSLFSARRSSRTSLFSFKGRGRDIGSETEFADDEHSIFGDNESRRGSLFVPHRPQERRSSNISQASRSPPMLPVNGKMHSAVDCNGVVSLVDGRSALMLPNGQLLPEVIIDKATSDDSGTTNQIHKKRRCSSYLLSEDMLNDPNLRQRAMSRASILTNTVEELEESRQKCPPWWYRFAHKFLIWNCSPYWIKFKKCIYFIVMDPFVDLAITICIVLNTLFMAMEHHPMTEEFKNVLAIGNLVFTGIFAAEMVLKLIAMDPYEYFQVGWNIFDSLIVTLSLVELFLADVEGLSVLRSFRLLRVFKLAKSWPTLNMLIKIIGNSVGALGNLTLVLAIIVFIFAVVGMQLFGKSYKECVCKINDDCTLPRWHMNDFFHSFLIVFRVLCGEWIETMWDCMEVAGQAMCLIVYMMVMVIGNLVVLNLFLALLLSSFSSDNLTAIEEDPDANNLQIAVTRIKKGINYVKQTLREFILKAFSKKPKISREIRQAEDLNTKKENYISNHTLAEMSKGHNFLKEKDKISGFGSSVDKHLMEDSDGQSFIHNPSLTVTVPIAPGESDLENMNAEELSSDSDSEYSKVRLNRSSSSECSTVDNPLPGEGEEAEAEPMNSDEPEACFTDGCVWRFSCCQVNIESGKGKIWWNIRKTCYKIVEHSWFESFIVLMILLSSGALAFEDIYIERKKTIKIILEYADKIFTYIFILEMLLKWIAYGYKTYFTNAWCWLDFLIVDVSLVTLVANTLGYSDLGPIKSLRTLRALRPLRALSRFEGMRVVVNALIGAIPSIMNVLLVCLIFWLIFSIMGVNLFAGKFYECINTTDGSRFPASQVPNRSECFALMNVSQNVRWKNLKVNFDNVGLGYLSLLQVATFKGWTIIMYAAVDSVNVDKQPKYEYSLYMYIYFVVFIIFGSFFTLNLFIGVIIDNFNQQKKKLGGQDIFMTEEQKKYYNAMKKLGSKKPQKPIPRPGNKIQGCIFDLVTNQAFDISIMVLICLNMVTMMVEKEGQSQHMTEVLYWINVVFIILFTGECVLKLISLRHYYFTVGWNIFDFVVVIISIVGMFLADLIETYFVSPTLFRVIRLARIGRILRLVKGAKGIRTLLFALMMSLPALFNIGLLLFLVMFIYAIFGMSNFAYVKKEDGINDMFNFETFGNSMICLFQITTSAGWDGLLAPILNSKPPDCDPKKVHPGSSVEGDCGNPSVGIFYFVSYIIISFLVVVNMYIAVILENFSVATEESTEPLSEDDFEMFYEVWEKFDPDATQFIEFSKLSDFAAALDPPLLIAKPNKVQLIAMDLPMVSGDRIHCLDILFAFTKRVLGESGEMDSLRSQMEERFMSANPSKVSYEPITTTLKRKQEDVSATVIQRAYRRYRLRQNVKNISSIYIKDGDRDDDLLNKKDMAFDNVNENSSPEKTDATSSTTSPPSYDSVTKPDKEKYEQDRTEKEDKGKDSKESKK

IC50 [µM]	Compound
16	CS(=O)(=O)NC(=O)c1ccc(Oc2ccc(Cl)cc2)c(-c2cccc(OC(F)(F)F)c2)c1 [Example 28, 6-(4-chlorophenoxy)-N-(methylsulfonyl)-3′-(trifluoromethoxy)biphenyl-3-carboxamide]
18	CS(=O)(=O)NC(=O)c1ccc(Oc2ccc(Cl)cc2)c(-c2cn[nH]c2)c1 [Example 30, 4-(4-chlorophenoxy)-N-(methylsulfonyl)-3-(1H-pyrazol-4-yl)benzamide]
69	COc1ncc(-c2cc(C(=O)NS(C)(=O)=O)ccc2Oc2ccc(Cl)cc2)cn1 [Example 40, 4-(4-chlorophenoxy)-3-(2-methoxypyrimidin-5-yl)-N-(methylsulfonyl)benzamide]
17	CS(=O)(=O)NC(=O)c1ccc(Oc2ccc(Cl)cc2)c(-c2cncc(C#N)c2)c1 [Example 44, 4-(4-chlorophenoxy)-3-(5-cyanopyridin-3-yl)-N-(methylsulfonyl)benzamide]
151	Cc1ncc(-c2cc(C(=O)NS(C)(=O)=O)ccc2Oc2ccc(Cl)cc2)cn1 [Example 46, 4-(4-chlorophenoxy)-3-(2-methylpyrimidin-5-yl)-N-(methylsulfonyl)benzamide]

— US8772343B2, “Chemical compounds” (Pfizer Limited, priority 2010, dated 2014)
